# Results as given in patent US7348025B2, “Small particle liposome aerosols for delivery of anticancer drugs” (priority 1999, dated 2008).
# Like-named read-outs stand apart in the source and are kept apart here.
# Legend:
# [1] = Tissue distribution of CPT after inhalation of CPT liposome aerosol; format: in vivo, Mouse; settings: Mouse, inhaled in liposome aerosol (30 min), 16.2 μg/kg (486 ng/mouse)
# Description: The final suspension was clear. If precipitation occurred, it was reheated to 50-60° C. The preparation was frozen in liquid nitrogen and lyophilized overnight. For use the material was dissolved in sterile water to the appropriate drug concentration, not exceeding 1.0 mg/ml for either drug. The efficiency of incorporation of drug in the liposomes was examined qualitatively by microscopic examination under polarized light. Unincorporated drug was seen as bi-refringent crystals. The efficiency of incorporation was examined by centrifugation of aqueous suspensions of liposomes on Percoll™ gradients. One-tenth ml of suspension was layered over 2 ml of gradient and centrifuged at 2000 rpm for 25-30 minutes. Liposomes layer at the water-Percoll interface, while unincorporated drug was deposited at the bottom of the tube. Many other lipids may be substituted for DLPC in the formulation and use of liposomes for delivery of drugs by aerosol (26).
# The mobile phase was 30% acetonitrile and 70% of 0.1% glacial acetic acid. CPT was detected using the Waters 470 scanning fluorescence detector set to an excitation wavelength of 370 nm and an emission wavelength of 440 nm. […] The data were analyzed with the Waters Millenium software.
# The deposited dose was calculated to be 486 ng per mouse. The mean concentrations in lungs and liver were similar with smaller concentrations in the other sites examined. […] Drug was cleared promptly from the lungs so that 15 minutes after stopping nebulization only negligible amounts of drug were present in the lungs. Liver, kidney and spleen had substantial amounts of drug initially which gradually diminished through the one hour of study. […] These studies indicate substantial immediate deposition of drug in the lungs with rapid clearance to the viscera. The amount of drug contributed by absorption from swallowed drug is uncertain.
# [2] = cited from earlier work
# [3] = Phase I clinical trial: 9NC plasma pharmacokinetics; format: in vivo, human
# Description: The purpose of quantitation of 9NC from plasma and bronchoalveolar fluids was to determine systemic absorption from the alveolar-capillary exchange surface. Plasma concentrations of total 9NC and the lactone form were measured. For patients who volunteered for pharmacokinetic studies, blood was obtained at various time pints from the start of the aerosol treatment depending on the cohort. For cohort 1 used in the feasibility study blood was obtained at the end of the first week of treatment. Samples were taken at 0, 0.5, 1, 1.25, 1.5, 2, 3, 5, 7, and 24 hours from the start of the 1-hr aerosol exposure. For all other cohorts, samples were obtained at 0, 2, 5, 8, and 24 hours on days 1 and 5 of weeks 1, 4 and 8 where appropriate. Quantitation was performed either by LC/MS, for cohorts 1 and 2, or by HPLC analysis, for cohorts 3 to 6. 9NC plasma concentrations were calculated from the ratio of 9 NC to CPT as internal standard. Extraction of 9NC and its lactone form was performed using Waters C18 Sep-Pak Light cartridges immediately after separating the plasma by a method similar to that previously described (12). Minimal level of detection of 9NC/ml of plasma was 0.5 ng by LC/MS and 1.0 ng by HPLC.
# [4] = tested on: human colon carcinoma xenografts (Squires); assay: Growth of human colon carcinoma xenografts in nude mice under liposome aerosol; format: in vivo
# [5] = cited from earlier work; remark: listed apart in the source
# [6] = human, in vivo, po; cited from earlier work
# [7] = Phase I clinical trial: 9NC in bronchoalveolar lavage fluid or bronchial aspirate; format: in vivo, human
# Description: Bronchoscopy was performed by a pulmonologist to obtain either bronchoalveolar lavage (BAL) fluid or bronchial aspirate for quantitation of 9NC. A BAL of the right middle lobe was performed once on volunteering patients at various times after the completion of treatment to study the amount of 9NC retained over time. Concentration of total 9NC in the BAL fluid was corrected for dilution by determining the ration of BUN in the lavage and in a plasma sample taken at the same time (13).
# [8] = cited from earlier work; for T1/2: Human; for Blood or plasma concentration / Time of maximum concentration: in vivo, po
# [9] = cohort 1 (0.26 mg/m^2), plasma, DLPC-9NC aerosol
smiles,measurement,setting,value
"CC[C@@]1(O)C(=O)OCc2c1cc1n(c2=O)Cc2cc3c([N+](=O)[O-])cccc3nc2-1 [9-NC, 9-nitro-camptothecin]",Blood or plasma concentration,[1],13.9 ng/mL
same,T1/2,"[2]; Dog, single oral dose 1.0 mg/kg (10 mg/dose)",(T1/2 = 6.4 h)
same,Blood or plasma concentration,"[2]; dog, in vivo, po, 1 mg/kg",19.1 ng/mL
same,Time of maximum concentration,"[2]; dog, in vivo, po, 1 mg/kg",0.7 h
same,Range of peak plasma concentration of total 9NC,"[3]; cohort 1 (0.26 mg/m^2), 5 patients, 1-hour DLPC-9NC aerosol, at 2 hr",13.6 to 58.0 ng/mL
same,Mean (±SD) peak plasma concentration of total 9NC,"[3]; cohort 1 (0.26 mg/m^2), 5 patients, 1-hour DLPC-9NC aerosol, at 2 hr from start, end of first week",37.7 ± 20.2 ng/mL
same,"T1/2α, mean (±SD)",[3]; [9],1.9 ± 1.4 h
same,"T1/2β, mean (±SD)",[3]; [9],16.4 ± 10.5 h
same,Peak plasma levels in women compared with men,"[3]; human, in vivo",higher
same,Time for which total 9NC plasma concentrations continued to increase,"[3]; human, in vivo",2 to 3 h
same,"Increase in tumor size, escalated-dose group versus 77 μg/kg group","[4]; 77 then 153 then 307 μg/kg per day versus 77 μg/kg throughout, differences not statistically significant",slightly less increase in tumor size
same,Rate of tumor growth versus controls,"[4]; day 28, P<0.007, Student t test, 2 tailed",reduced rate of tumor growth
same,Emaciation of treated mice,[4]; high dose group (up to 307 μg/kg per day),suggesting drug toxicity
same,T1/2,"[5]; Mouse, single oral dose 4.1 mg/kg (0.124 mg/dose)",(T1/2 = 10 h)
same,Blood or plasma concentration,"[5]; mouse, in vivo, po, 4.1 mg/kg",732 ng/mL
same,Time of maximum concentration,"[5]; mouse, in vivo, po, 4.1 mg/kg",6 min
same,Another side effect,[6],chemical cystitis with hematuria
same,Main toxicity profile,[6],"hematologic with anemia and neutropenia and gastrointestinal with nausea, vomiting and anorexia"
same,9NC in plasma taken at the same time as BAL,"[7]; Subject 1, cycle 1, day 3, 2.1 hr from start of aerosol",43.2 ng/mL
same,9NC in BAL fluid,"[7]; Subject 1, cycle 1, day 3, 2.1 hr from start of aerosol, cohort 1, 0.26 mg/m^2",8.2 ng/mL
same,9NC in plasma taken at the same time as BAL,"[7]; Subject 3, cycle 4, day 3, 4.8 hr from start of aerosol",10.8 ng/mL
same,9NC in BAL fluid,"[7]; Subject 3, cycle 4, day 3, 4.8 hr from start of aerosol, cohort 1, 0.26 mg/m^2",4.3 ng/mL
same,9NC in plasma taken at the same time as BAL,"[7]; Subject 4, cycle 2, day 4, 3.5 hr from start of aerosol",34.2 ng/mL
same,9NC in BAL fluid,"[7]; Subject 4, cycle 2, day 4, 3.5 hr from start of aerosol, cohort 1, 0.26 mg/m^2",25.8 ng/mL
same,9NC in plasma taken at the same time as the aspirate,"[7]; Subject 6, cycle 1, day 4, 1.2 hr from start of aerosol",36.2 ng/mL
same,9NC in lung aspirate,"[7]; Subject 6, cycle 1, day 4, 1.2 hr from start of aerosol, cohort 1, 0.26 mg/m^2",60.7 ng/mL
same,T1/2,[8]; single oral dose 0.1 mg/kg (7 mg/dose),(T1/2 = 2.5 h)
same,T1/2,[8]; single oral dose 1.0 mg/kg (70 mg/dose),(T1/2 = 4.9 h)
same,Blood or plasma concentration,[8]; 0.1 mg/kg,483 ng/mL
same,Time of maximum concentration,[8]; 0.1 mg/kg,3.4 h
same,Blood or plasma concentration,[8]; 1 mg/kg,1247 ng/mL
same,Time of maximum concentration,[8]; 1 mg/kg,5.3 h
